Measured values taken from patent publication US4772615A, “Various N-substituted 3-piperidine carboxylic acids or N-substituted 3-pyridinecarboxylic acids and derivatives thereof” (Warner-Lambert Company, priority 1987, dated 1988).
Where a name gives a salt, the structure may show the parent alone. Read-outs that look alike come from different tables or passages of the source.

Key:
[1] = test system: tonic hindlimb extensor seizures; assay: Threshold Maximal Electroshock (animal model for generalized seizures); format: in vivo, Male CF-1 mice; settings: Mus musculus, ip, 0.5 h
Procedure: Male CF-1 mice (22-30 grams) are allowed free access to food and water prior to testing. For screening, groups of five mice are given a compound intraperitoneally at doses of 30, 100, and 300 mg/kg and tested at 0.5, 2.0, and 4.0 hr after dosing. Drugs are either dissolved in 0.9% saline or suspended in 0.2% methylcellulose. Animals are shocked with corneal electrodes (see below) and observed for tonic hindlimb extensor seizures. Absence of hindlimb extension is taken as an anticonvulsant effect.
The electroshock apparatus delivers a 60 Hz sine wave with a current amplitude of 14 mA (peak-to-peak) for 0.2 seconds. The current strength of 14 mA used in this procedure produces tonic extensor seizures in approximately 95% of untreated mice, but is only slightly above threshold for tonic extension.

[2] = test system: uptake of the neurotransmitter gamma-amino-butyric acid (GABA) into slices of rat hippocampal (brain) tissue; assay: Uptake of 3H-GABA into slices (prisms) of rat hippocampus in vitro; format: biochemical, Male Long Evans rats; settings: 3H-GABA 0.05 μM; 10 mg tissue, 15 min with test compound at 37° C., 2 min uptake; read-out: IC50 (Calculated Median (50%) Inhibitory Concentration)
Procedure: The compounds of formula I are tested for pharmacological activity using three procedures. The first is an assay for the uptake of the neurotransmitter gamma-amino-butyric acid (GABA) into slices of rat hippocampal (brain) tissue incubated in vitro analogous to those described by Johnston, GAR, et al, in J. Neurochem. 26:1029-1032 (1976) entitled "Inhibition of the Uptake of GABA and Related Amino Acids in Rat Brain Slices by the Optical Isomers of Nipecotic Acid." Methods for this test are described in the following paragraph.
Male Long Evans rats (200-300 g) were sacrificed by decapitation, the brains quickly removed and the hippocampi were dissected out. Slices were cut (0.1×0.1 mm) on a McIlwain tissue chopper and dispersed in ice-chilled Krebs Ringer HEPES-buffered medium. Normal medium was composed of: NaCl (119 mM), KCl (4.75 mM), CaCl2 (1.25 mM), KH2 PO4 (1.20 mM), MgSO4 (1.18 mM), HEPES (22 mM), EDTA (0.03 mM), ascorbate (0.6 mM), and glucose (10 mM). The pH was adjusted to 7.2 with 3.0M Tris HCl. Following two washes in normal medium, 10 mg of tissue was incubated in a 3 ml volume of medium at 37° C. for 15 min in the presence or absence of test compound. ^3 H-GABA (80.8 Ci/mmole; 0.05 μM final concentration) was added to each flask and the uptake was allowed to proceed for a two min period. At the end of the uptake period, samples were rapidly filtered through Whatman GF/F filters and washed once with 5 ml ice-chilled 0.9% sodium chloride. The filters with tissue were placed into scintillation vials with 2 ml H2 O and allowed to sit for at least 60 min before scintillation fluid was added and samples counted. Blanks were treated in a manner similar to other samples, but were left on ice throughout the experiment. Results are expressed as percent control (no drug present) or IC50 value.
Table I. GABA uptake into prisms of rat hippocampus in vitro in the presence of different concentrations of various synthetic compounds of formula I.

[3] = test system: threshold clonic seizures in mice caused by subcutaneous administration of pentylenetetrazol; assay: Attenuation of threshold clonic seizures in mice caused by subcutaneous pentylenetetrazol (model for absence type seizures); format: in vivo; settings: Mus musculus, pentylenetetrazol 85 mg/kg s.c., read-out: Calculated Median Effective Dose (ED50)
Procedure: A third pharmacological test was performed as described in R. L. Krall et al, Epilepsia, 19:409 (1978), which is incorporated herein by reference. In this procedure, drugs were tested for attenuation of threshold clonic seizures in mice caused by subcutaneous administration of pentylenetetrazol (85 mg/kg) which is a generally accepted model for absence type seizures. Results from the third test for the compound when administered either intraperitoneally (IP) or orally (PO) are shown below in Table III.

[4] = read-out: Number of Animals Protected from Seizures (n/5)
[5] = 30 mg/kg, intraperitoneal, 30 minutes after administration, read-out: Number of Animals Protected from Seizures (n/5)
[6] = 2 h, PO, tested 120 min following dosing

SMILES | responders at 30 mg/kg [1, 4] [%] | responders at 100 mg/kg [1, 4] [%] | IC50 [2] [µM] | responders at 30 mg/kg [1, 5] [%] | responders at 100 mg/kg ([1]; 100 mg/kg, intraperitoneal, 30 minutes after administration, read-out: Number of Animals Protected from Seizures (n/5) (converted)) [%] | ED50 ([3]; 0.5 h, IP, tested 30 min following dosing) [mg/kg] | ED50 [3, 6] [mg/kg]
CCOC(=O)C1CCCN(CCOC(c2ccc(Cl)cc2)c2ccc(Cl)cc2)C1 (centres unmarked) [Example I, 3-Piperidinecarboxylic acid 1-[2-[bis-(4-chlorophenyl)methoxy]ethyl]-, ethyl ester] | 0 | 60 | 12 | – | – | – | –
O=C(O)C1CCCN(CCOC(c2ccccc2)c2ccc(Cl)c(Cl)c2)C1 (centres unmarked) [Example IX, 3-Piperidinecarboxylic acid, 1-[2-[(3,4-dichlorophenyl)phenylmethoxy]ethyl]-, monohydrochloride] | 60 | 80 | – | – | – | – | –
CCOC(=O)C1CCCN(CCOC(c2ccccc2)c2ccccc2)C1 (centres unmarked) [II, 3-Piperidinecarboxylic acid, 1-[2-(diphenylmethoxy)ethyl]-, ethyl ester] | 20 | 80 | ~35 | – | – | – | –
CCOC(=O)C1CCCN(CCCOC(c2ccccc2)c2ccccc2)C1 (centres unmarked) [III, 3-Piperidinecarboxylic acid, 1-[3-(diphenylmethoxy)propyl]-, ethyl ester, monohydrochloride] | – | – | – | 0 | – | – | –
CCOC(=O)C1CCCN(CCSC(c2ccccc2)c2ccccc2)C1 (centres unmarked) [IV, 3-Piperidinecarboxylic acid, 1-[2-[(diphenylmethyl)thio]ethyl]-, ethyl ester] | – | – | ~60 | – | – | – | –
O=C(O)C1CCCN(CCCOC(c2ccccc2)c2ccccc2)C1 (centres unmarked) [VI, 3-Piperidinecarboxylic acid, 1-[3-diphenylmethoxy)propyl]-, monohydrochloride] | – | – | 11 | 0 | 20 | – | –
Cl.O=C(O)C1CCCN(CCOC(c2ccccc2)c2ccccc2)C1 (centres unmarked) [VII, 3-Piperidinecarboxylic acid, 1-[2-(diphenylmethoxy)ethyl]-, monohydrochloride] | 25 | 50 | 3 | – | – | 1.9 | –
O=C(O)C1CCCN(CCOC(c2ccc(Cl)cc2)c2ccc(Cl)cc2)C1 (centres unmarked) [VIII, 3-piperidinecarboxylic acid, 1-[2-[bis(4-chlorophenyl)methoxy]ethyl]monohydrochloride] | 80 | 80 | 0.29 | – | – | – | 0.54
O=C(O)C1CCCN(CCOC(c2ccccc2)c2ccc(Cl)c(C(F)(F)F)c2)C1 (centres unmarked) [X, 3-Piperidinecarboxylic acid, 1-[2-[[4-chloro-3-(trifluoromethyl)phenyl]phenylmethoxy]ethyl]monohydrochloride] | 20 | 100 | 0.86 | – | – | – | –
O=C(O)C1CCCN(CCOC2c3ccccc3C=Cc3ccccc32)C1 (centres unmarked) [XI, 3-Piperidinecarboxylic acid, 1-[2-[(5H-dibenzo[a,d]cyclohepten-5-yloxy)ethyl]]-] | 20 | 40 | – | – | – | – | –
O=C(O)C1CCCN(CCOC(c2ccc(F)cc2)c2ccc(F)cc2)C1 (centres unmarked) [XIII, 3-Piperidinecarboxylic acid, 1-[2-[bis (4-fluorophenyl)methoxy]ethyl]-, monohydrochloride] | 40 | 40 | – | – | – | – | –
O=C(O)C1=CCCN(CCOC(c2ccc(Cl)cc2)c2ccc(Cl)cc2)C1 [XIX, 3-Pyridinecarboxylic acid, 1-[2-[bis(4-chlorophenyl)methoxy]ethyl]-1,2,5,6-tetrahydro, hydrochloride] | 80 | 100 | 0.1 | – | – | – | –
Cl.O=C(O)C1=CCCN(CCOC(c2ccc(C(F)(F)F)cc2)c2ccc(C(F)(F)F)cc2)C1 [XVII, 3-Pyridinecarboxylic acid, 1-[2-[bis[4-(trifluoromethyl)phenyl]methoxy]ethyl]-1,2,5,6-tetrahydro-, monohydrochloride] | 80 | 80 | 0.45 | – | – | – | 0.5
O=C(O)C1CCCN(CCOC(c2ccc(C(F)(F)F)cc2)c2ccc(C(F)(F)F)cc2)C1 (centres unmarked) [XVIII, 3-Piperidinecarboxylic acid, 1-[2-[bis[4-(trifluoromethyl)phenyl]methoxy]ethyl]-, hydrochloride] | 100 | 100 | 0.7 | – | – | – | –
